Laboratory results published in patent US8329688B2, “Trans-4-[[(5S)-5-[[[3,5-bis(trifluoromethyl)phenyl]methyl](2-methyl-2H-tetrazol-5-yl)amino]-2,3,4,5-tetrahydro-7,9-dimethyl-1H-1-benzazepin-1-yl]methyl]-cyclohexanecarboxylic acid” (Eli Lilly and Company, priority 2009, dated 2012).

Test: IV and PO pharmacokinetics of CETP inhibitor compounds in male Sprague Dawley rats
Format: in vivo
Conditions: rat, 3 mg/kg PO, 1 mg/kg IV
Procedure: This following is to determine the pharmacokinetic parameters, including oral bioavailability, following a single 1 mg/kg intravenous bolus or a 3 mg/kg oral dose administration of the compound to male Sprague Dawley rats (n=4) in a crossover study design. The intravenous vehicle is 20% solutol microemulsion/80% deionized water. The oral vehicle is povidone USP 10%/SLS 0.5%/QS deionized water. In the intravenous arm, blood samples are collected at 0.08, 0.25, 0.5, 1, 2, 5, 8, 12, and 24 hours post-dose. In the oral arm, blood samples are collected at 0, 0.25, 0.5, 1, 2, 5, 8, 12, and 24 hours post-dose. Plasma is obtained by centrifugation, placed on ice, and frozen until samples are shipped on dry ice to Bioanalytical Systems, Inc. (BASi; West Lafayette, Ind.) for bioanalytical analysis. Concentrations of BCCA are determined by LC/MS/MS and pharmacokinetic parameters are calculated using a validated software program (Watson, Version 7.1). […]

Cc1cc2c(c(C)c1C(F)(F)F)N(CC1CCC(CC(=O)O)CC1)CCC[C@@H]2N(Cc1cc(C(F)(F)F)cc(C(F)(F)F)c1)c1nnn(C)n1 (stereo partly drawn) [compound 15, (S)-(4-{5-[(3,5-Bis-trifluoromethyl-benzyl)-(2-methyl-2H-tetrazol-5-yl)-amino]-7,9-dimethyl-8-trifluoromethyl-2,3,4,5-tetrahydro-benzo[b]azepin-1-ylmethyl}-cyclohexyl)-acetic acid]
F % (AUC Extrap.) ± sd: 8 ± 3%
